{
  "source": "paper PMC6325200",
  "about": "“Effects of Microplate Type and Broth Additives on Microdilution MIC Susceptibility Assays” (Antimicrobial Agents and Chemotherapy, 2018)",
  "key": {"[1]": {"test_system": "E. coli ATCC 25922", "test": "microbe, parasite or virus in culture", "protocol": "(§1) A positive control of a row of just the bacteria and a negative control of only the medium were included for every plate tested.\n(§2) The compounds along with standard antibiotics were serially diluted 2-fold across the 96-well plates. […] A sample of each culture was then diluted 40-fold in fresh MH broth (in presence and absence of Tween) and incubated at 37°C for 2 to 3 h.\nFor experiments in the presence of surfactant, 2% beractant (25 mg/ml) was added to the mid-log-phase cultures and mixed gently and added to all the 96-well plates. For experiments in the presence of serum, a mixture of 50% of human serum along with 50% MHB was prepared and used throughout the experiment."}, "[2]": {"test_system": "A. baumannii ATCC 19606", "test": "microbe, parasite or virus in culture", "conditions": "n = 2", "protocol": "as §1, §2"}, "[3]": {"test_system": "K. pneumoniae ATCC 13883", "test": "microbe, parasite or virus in culture", "conditions": "n = 2", "protocol": "as §1, §2"}, "[4]": {"test_system": "P. aeruginosa ATCC 10145", "test": "microbe, parasite or virus in culture", "conditions": "n = 2", "protocol": "as §1, §2"}, "[5]": {"test_system": "E. coli", "conditions": "literature value; cited from earlier work"}, "[6]": {"test_system": "over 200 strains", "conditions": "0.002% polysorbate added; cited from earlier work", "description": "Members of the lipopeptide polymyxin class of antibiotics (polymyxin B [compound 7a] and polymyxin E [or colistin, compound 7b]) are important last-line therapeutic agents against many multidrug-resistant Gram-negative bacteria ([27][–][31]). They consist of an N-terminal fatty acid side chain that is attached to a polycationic deca-peptide backbone (Fig. 1) with physicochemical properties similar to those of the lipoglycopeptides. These structural features confer amphipathicity, which is a key feature of many other cationic antimicrobial peptides (CAMPs) ([32][–][34]). As mentioned earlier, p ..."}, "[7]": {"conditions": "literature values, reference given; cited from earlier work", "description": "Other assay additives can affect MIC values. […] Plasma protein binding has been implicated as a major factor limiting the active free concentration of many clinically important antibiotics ([37][–][42])."}},
  "note": "Where a SMILES comes first, the peptide text is derived from it. Bridges are numbered along the chain shown (N, C = ends). [ ]: non-standard residue; d: D form. The star is where a group is joined. X1 = CC[C@H](C)CCCCC(=O)*; Dab = NCC[C@H](N)C(=O)O",
  "data": [
    {"smiles": "CC[C@H](C)CCCCC(=O)N[C@@H](CCN)C(=O)N[C@H](C(=O)N[C@@H](CCN)C(=O)N[C@H]1CCNC(=O)[C@H]([C@@H](C)O)NC(=O)[C@H](CCN)NC(=O)[C@H](CCN)NC(=O)[C@H](CC(C)C)NC(=O)[C@@H](Cc2ccccc2)NC(=O)[C@H](CCN)NC1=O)[C@@H](C)O", "note": "[Polymyxin B, polymyxin B] (X1-[Dab]T[Dab][Dab][Dab][dF]L[Dab][Dab]T; lactam 4-C (inferred); N-terminus assumed)", "values": [
      {"measurement": "MIC", "setting": "[1]; Corning NBS, MH + 2% LHB, 2% LS, n = 2", "value": "≤0.03", "unit": "µg/mL"},
      {"measurement": "MIC", "setting": "[1]; Corning NBS, MH + 2% LHB, 50% HS, n = 2", "value": "≤0.03", "unit": "µg/mL"},
      {"measurement": "MIC", "setting": "[1]; Corning NBS, MH + 2% LHB, no additive, n = 2", "value": "≤0.03", "unit": "µg/mL"},
      {"measurement": "MIC", "setting": "[1]; Corning NBS, MH + T80, 2% LS, n = 2", "value": "≤0.03", "unit": "µg/mL"},
      {"measurement": "MIC", "setting": "[1]; Corning NBS, MH + T80, 50% HS, n = 2", "value": "0.03 to 0.06", "unit": "µg/mL"},
      {"measurement": "MIC", "setting": "[1]; Corning NBS, MH, 2% LS, n = 2", "value": "≤0.03", "unit": "µg/mL"},
      {"measurement": "MIC", "setting": "[1]; Corning NBS, MH, 50% HS, n = 2", "value": "≤0.03", "unit": "µg/mL"},
      {"measurement": "MIC", "setting": "[1]; Corning PS plate, MHB +0.002% T80, no further additive, n = 2", "value": "0.03 to 0.25", "unit": "µg/mL"},
      {"measurement": "MIC", "setting": "[1]; Corning PS plate, MHB −T80, no additive, n = 2", "value": 0.06, "unit": "µg/mL"},
      {"measurement": "MIC", "setting": "[1]; Corning PS, MH + 2% LHB, 2% LS, n = 2", "value": 0.06, "unit": "µg/mL"},
      {"measurement": "MIC", "setting": "[1]; Corning PS, MH + 2% LHB, 50% HS, n = 2", "value": "0.03 to 0.06", "unit": "µg/mL"},
      {"measurement": "MIC", "setting": "[1]; Corning PS, MH + 2% LHB, no additive, n = 2", "value": "2 to 8", "unit": "µg/mL"},
      {"measurement": "MIC", "setting": "[1]; Corning PS, MH + T80, 2% LS, n = 2", "value": "0.06 to 0.125", "unit": "µg/mL"},
      {"measurement": "MIC", "setting": "[1]; Corning PS, MH + T80, 50% HS, n = 2", "value": "0.03 to 0.06", "unit": "µg/mL"},
      {"measurement": "MIC", "setting": "[1]; Corning PS, MH, 2% LS, n = 2", "value": "0.06 to 0.125", "unit": "µg/mL"},
      {"measurement": "MIC", "setting": "[1]; Corning PS, MH, 50% HS, n = 2", "value": "≤0.03", "unit": "µg/mL"},
      {"measurement": "MIC", "setting": "[1]; Corning TC plate, MHB +0.002% T80, no further additive, n = 2", "value": 2, "unit": "µg/mL"},
      {"measurement": "MIC", "setting": "[1]; Corning TC plate, MHB −T80, no additive, n = 2", "value": "1 to 2", "unit": "µg/mL"},
      {"measurement": "MIC", "setting": "[1]; Corning TC, MH + 2% LHB, 2% LS, n = 2", "value": "2 to 8", "unit": "µg/mL"},
      {"measurement": "MIC", "setting": "[1]; Corning TC, MH + 2% LHB, 50% HS, n = 2", "value": 4, "unit": "µg/mL"},
      {"measurement": "MIC", "setting": "[1]; Corning TC, MH + 2% LHB, no additive, n = 2", "value": 0.125, "unit": "µg/mL"},
      {"measurement": "MIC", "setting": "[1]; Corning TC, MH + T80, 2% LS, n = 2", "value": "2 to 4", "unit": "µg/mL"},
      {"measurement": "MIC", "setting": "[1]; Corning TC, MH + T80, 50% HS, n = 2", "value": "1 to 4", "unit": "µg/mL"},
      {"measurement": "MIC", "setting": "[1]; Corning TC, MH, 2% LS, n = 2", "value": 4, "unit": "µg/mL"},
      {"measurement": "MIC", "setting": "[1]; Corning TC, MH, 50% HS, n = 2", "value": "0.25 to 0.5", "unit": "µg/mL"},
      {"measurement": "MIC", "setting": "[1]; NBS plates", "value": "≤ 0.03", "unit": "µg/mL"},
      {"measurement": "MIC", "setting": "[1]; Nunc PS plate, MHB +0.002% T80, n = 2", "value": "0.03 to 0.06", "unit": "µg/mL"},
      {"measurement": "MIC", "setting": "[1]; Nunc PS plate, MHB −T80, n = 2", "value": "0.125 to 0.25", "unit": "µg/mL"},
      {"measurement": "MIC", "setting": "[1]; Nunc U TC plate, MHB +0.002% T80, n = 2", "value": "2 to 4", "unit": "µg/mL"},
      {"measurement": "MIC", "setting": "[1]; Nunc U TC plate, MHB −T80, n = 2", "value": "1 to 4", "unit": "µg/mL"},
      {"measurement": "MIC", "setting": "[1]; Nunc flat TC plate, MHB +0.002% T80, n = 2", "value": 2, "unit": "µg/mL"},
      {"measurement": "MIC", "setting": "[1]; Nunc flat TC plate, MHB −T80, n = 2", "value": 1, "unit": "µg/mL"},
      {"measurement": "MIC", "setting": "[1]; Trek PS plate, MHB +0.002% T80, no further additive, n = 2", "value": "0.03 to 0.06", "unit": "µg/mL"},
      {"measurement": "MIC", "setting": "[1]; Trek PS plate, MHB −T80, no additive, n = 2", "value": "0.06 to 0.125", "unit": "µg/mL"},
      {"measurement": "MIC", "setting": "[1]; Trek PS, MH + 2% LHB, 2% LS, n = 2", "value": "≤0.03", "unit": "µg/mL"},
      {"measurement": "MIC", "setting": "[1]; Trek PS, MH + 2% LHB, 50% HS, n = 2", "value": "≤0.03", "unit": "µg/mL"},
      {"measurement": "MIC", "setting": "[1]; Trek PS, MH + 2% LHB, no additive, n = 2", "value": "0.03 to 0.25", "unit": "µg/mL"},
      {"measurement": "MIC", "setting": "[1]; Trek PS, MH + T80, 2% LS, n = 2", "value": "0.03 to 0.06", "unit": "µg/mL"},
      {"measurement": "MIC", "setting": "[1]; Trek PS, MH + T80, 50% HS, n = 2", "value": "0.03 to 0.125", "unit": "µg/mL"},
      {"measurement": "MIC", "setting": "[1]; Trek PS, MH, 2% LS, n = 2", "value": "0.5 to 1", "unit": "µg/mL"},
      {"measurement": "MIC", "setting": "[1]; Trek PS, MH, 50% HS, n = 2", "value": "≤0.03", "unit": "µg/mL"},
      {"measurement": "MIC", "setting": "[2]; Corning NBS, MHB +T80", "value": "≤ 0.03", "unit": "µg/mL"},
      {"measurement": "MIC", "setting": "[2]; Corning NBS, MHB -T80", "value": "≤ 0.03", "unit": "µg/mL"},
      {"measurement": "MIC", "setting": "[2]; Corning PS, MHB +T80", "value": "≤ 0.03", "unit": "µg/mL"},
      {"measurement": "MIC", "setting": "[2]; Corning PS, MHB -T80", "value": "0.06 to 0.125", "unit": "µg/mL"},
      {"measurement": "MIC", "setting": "[2]; Corning TC, MHB +T80", "value": "2 to 4", "unit": "µg/mL"},
      {"measurement": "MIC", "setting": "[2]; Corning TC, MHB -T80", "value": "0.5 to 1", "unit": "µg/mL"},
      {"measurement": "MIC", "setting": "[3]; Corning NBS, MHB +T80", "value": "≤ 0.03", "unit": "µg/mL"},
      {"measurement": "MIC", "setting": "[3]; Corning NBS, MHB -T80", "value": "0.03 to 0.125", "unit": "µg/mL"},
      {"measurement": "MIC", "setting": "[3]; Corning PS, MHB +T80", "value": "0.03 to 0.06", "unit": "µg/mL"},
      {"measurement": "MIC", "setting": "[3]; Corning PS, MHB -T80", "value": "0.06 to 0.25", "unit": "µg/mL"},
      {"measurement": "MIC", "setting": "[3]; Corning TC, MHB +T80", "value": 1, "unit": "µg/mL"},
      {"measurement": "MIC", "setting": "[3]; Corning TC, MHB -T80", "value": 1, "unit": "µg/mL"},
      {"measurement": "MIC", "setting": "[4]; Corning NBS, MHB +T80", "value": "0.03 to 0.125", "unit": "µg/mL"},
      {"measurement": "MIC", "setting": "[4]; Corning NBS, MHB -T80", "value": "0.03 to 0.06", "unit": "µg/mL"},
      {"measurement": "MIC", "setting": "[4]; Corning PS, MHB +T80", "value": "0.5 to 1", "unit": "µg/mL"},
      {"measurement": "MIC", "setting": "[4]; Corning PS, MHB -T80", "value": "0.25 to 1", "unit": "µg/mL"},
      {"measurement": "MIC", "setting": "[4]; Corning TC, MHB +T80", "value": "2 to 4", "unit": "µg/mL"},
      {"measurement": "MIC", "setting": "[4]; Corning TC, MHB -T80", "value": "1 to 4", "unit": "µg/mL"},
      {"measurement": "MIC (literature)", "setting": "[5]", "value": "0.25–1 ([73]) µg/ml"},
      {"measurement": "more potent MICs with surfactant present", "setting": "[6]", "value": "4- to 8 fold"},
      {"measurement": "protein binding", "setting": "[7]", "value": "50 to 60", "unit": "%"}
    ]}
  ]
}
